Measurements reported in US7837670B2, “Methods and devices for delivering therapeutic agents into the prostate gland” (Boston Scientific Scimed, Inc., priority 2005, dated 2010).

Assays:
[1] = Autoradiography of the prostate after transurethral catheter injection of tritium labeled agent
[2] = Parallel autoradiography of liver and urogenital organs to test for regurgitation or escape into the blood stream
BPH = settings: only after 6 months of oral treatment; cited from earlier work
[3] = 6 hours after transurethral injection of 150 uCi 3H-flutamide
[4] = 24 hours after transurethral injection of 150 uCi 3H-flutamide
[5] = 48 hours after transurethral injection of 150 uCi 3H-flutamide

Molecule: 3H-flutamide [tritium labeled flutamide]
- diffuse (non-nuclear, including stroma) activity in prostate ([1]; 1 hour after transurethral injection of 150 uCi 3H-flutamide): Strong, diffuse activity scattered over the whole prostate
- free (extra-nuclear) activity in prostate [1, 3]: periphery of the gland. Practically no free (extra-nuclear)
- glandular nuclear activity in prostate [1, 3]: Strong, selective glandular (but not stromal or muscular)
- glandular nuclear activity in prostate ([1]; 12 hours after transurethral injection of 150 uCi 3H-flutamide): Strong, selective glandular (but not stromal or muscular)
- nuclear binding in prostate [1, 4]: Strong nuclear binding
- unbound activity in prostate [1, 4]: minimal unbound activity scattered
- extra-nuclear labeling in prostate [1, 5]: covers the whole prostate, minimal scattered extra-nuclear
- glandular nuclear activity in prostate [1, 5]: Still strong, although somewhat less activity over the
- autoradiographic labeling of seminal vesicle, seminal duct and testicular samples ([2]; all time points (1, 6, 12, 24, 48 hours)): remained all negative
- autoradiographic grains in the epididymis (regurgitation of the label) ([2]; epididymis, 6 hours after transurethral injection of 150 uCi): No grains are seen in the epididymis
- autoradiographic grains in the liver (escape into systemic circulation) ([2]; liver, 48 hours after transurethral injection of 150 uCi): No grains are seen in the liver

Molecule: CC(C)(C)NC(=O)[C@H]1CC[C@H]2[C@@H]3CC[C@H]4NC(=O)C=C[C@]4(C)[C@H]3CC[C@]12C [finasteride]
- alleviation of BPH complaints, share of cases (BPH): about half of the cases
